This is an account of results in ChEMBL document CHEMBL5291721, “A preclinical secondary pharmacology resource illuminates target-adverse drug reaction associations of marketed drugs” (Nat Commun, 2023).

The target of assay [1] is Adenosine receptor A2a (Homo sapiens, UniProt P29274).
Assay [2] concerns the target T1, Neuropeptide Y receptor type 1 (Homo sapiens, UniProt P25929).
T1 sequence (P25929 whole entry): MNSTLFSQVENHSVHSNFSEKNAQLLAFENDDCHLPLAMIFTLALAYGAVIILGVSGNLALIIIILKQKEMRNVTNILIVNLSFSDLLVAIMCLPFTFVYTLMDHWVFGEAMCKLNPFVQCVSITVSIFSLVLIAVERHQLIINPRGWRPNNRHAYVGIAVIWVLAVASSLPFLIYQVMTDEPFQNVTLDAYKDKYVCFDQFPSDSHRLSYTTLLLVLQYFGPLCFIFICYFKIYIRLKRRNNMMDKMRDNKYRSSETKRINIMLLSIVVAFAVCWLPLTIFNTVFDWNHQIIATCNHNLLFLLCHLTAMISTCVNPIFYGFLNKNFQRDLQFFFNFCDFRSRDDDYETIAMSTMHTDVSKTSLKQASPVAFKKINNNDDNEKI

For assay [3], the target named is T2, Adenosine receptor A1 (Homo sapiens, UniProt P30542).
T2 sequence (P30542 whole entry): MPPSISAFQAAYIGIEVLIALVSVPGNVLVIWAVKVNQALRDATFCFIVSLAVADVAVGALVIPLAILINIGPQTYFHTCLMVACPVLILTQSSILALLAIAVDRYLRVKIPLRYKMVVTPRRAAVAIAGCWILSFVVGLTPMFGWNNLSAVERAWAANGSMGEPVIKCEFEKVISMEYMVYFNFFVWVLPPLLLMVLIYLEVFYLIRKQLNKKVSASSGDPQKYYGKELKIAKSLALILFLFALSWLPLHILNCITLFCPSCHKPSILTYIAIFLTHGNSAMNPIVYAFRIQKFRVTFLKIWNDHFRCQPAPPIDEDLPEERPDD

Assay [4] has as its target T3, Progesterone receptor (Homo sapiens, UniProt P06401).
T3 sequence (P06401 whole entry): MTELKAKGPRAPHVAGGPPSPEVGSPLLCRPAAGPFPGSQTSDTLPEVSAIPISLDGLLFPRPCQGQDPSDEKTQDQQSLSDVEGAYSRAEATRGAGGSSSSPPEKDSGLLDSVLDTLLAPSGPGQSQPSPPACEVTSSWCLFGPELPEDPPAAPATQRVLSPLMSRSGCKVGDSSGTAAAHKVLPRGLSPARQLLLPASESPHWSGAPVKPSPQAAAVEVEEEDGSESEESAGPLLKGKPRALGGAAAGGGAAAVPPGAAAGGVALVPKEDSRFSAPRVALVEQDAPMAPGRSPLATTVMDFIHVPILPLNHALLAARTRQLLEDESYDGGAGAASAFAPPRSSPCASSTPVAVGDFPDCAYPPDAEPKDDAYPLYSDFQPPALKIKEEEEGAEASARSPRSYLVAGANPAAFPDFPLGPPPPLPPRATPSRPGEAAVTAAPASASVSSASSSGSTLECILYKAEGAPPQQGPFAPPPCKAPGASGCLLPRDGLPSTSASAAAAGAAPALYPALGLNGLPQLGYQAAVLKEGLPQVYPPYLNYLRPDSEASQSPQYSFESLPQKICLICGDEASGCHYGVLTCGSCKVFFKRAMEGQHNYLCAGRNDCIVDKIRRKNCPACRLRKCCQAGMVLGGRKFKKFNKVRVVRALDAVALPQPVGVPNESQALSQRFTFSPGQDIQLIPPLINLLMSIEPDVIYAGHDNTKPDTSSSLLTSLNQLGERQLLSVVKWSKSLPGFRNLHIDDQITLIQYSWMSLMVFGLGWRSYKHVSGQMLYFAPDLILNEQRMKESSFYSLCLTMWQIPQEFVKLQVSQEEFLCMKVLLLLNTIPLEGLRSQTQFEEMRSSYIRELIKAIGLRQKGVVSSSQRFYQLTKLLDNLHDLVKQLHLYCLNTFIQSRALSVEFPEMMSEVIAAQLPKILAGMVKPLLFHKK
The format is functional.

In assay [5] the target is 5-hydroxytryptamine receptor 2B (Homo sapiens, UniProt P41595). It is filed as functional, cell-based.
5-hydroxytryptamine receptor 2B, sequence (P41595 whole entry): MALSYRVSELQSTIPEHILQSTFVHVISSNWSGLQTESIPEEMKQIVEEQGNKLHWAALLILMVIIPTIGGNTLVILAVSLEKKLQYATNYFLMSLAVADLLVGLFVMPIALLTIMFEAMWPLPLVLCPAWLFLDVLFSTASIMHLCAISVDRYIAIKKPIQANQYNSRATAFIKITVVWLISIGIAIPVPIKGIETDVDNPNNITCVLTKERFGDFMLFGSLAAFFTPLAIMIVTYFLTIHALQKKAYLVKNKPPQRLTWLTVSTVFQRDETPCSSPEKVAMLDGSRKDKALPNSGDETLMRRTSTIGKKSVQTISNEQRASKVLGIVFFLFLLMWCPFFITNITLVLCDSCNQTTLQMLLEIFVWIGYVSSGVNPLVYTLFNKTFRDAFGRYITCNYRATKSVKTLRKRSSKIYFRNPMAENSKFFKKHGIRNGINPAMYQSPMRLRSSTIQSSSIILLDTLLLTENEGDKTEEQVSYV
For assay [6], the target named is T4, Muscarinic acetylcholine receptor M2 (Homo sapiens, UniProt P08172).
T4 sequence (P08172 whole entry): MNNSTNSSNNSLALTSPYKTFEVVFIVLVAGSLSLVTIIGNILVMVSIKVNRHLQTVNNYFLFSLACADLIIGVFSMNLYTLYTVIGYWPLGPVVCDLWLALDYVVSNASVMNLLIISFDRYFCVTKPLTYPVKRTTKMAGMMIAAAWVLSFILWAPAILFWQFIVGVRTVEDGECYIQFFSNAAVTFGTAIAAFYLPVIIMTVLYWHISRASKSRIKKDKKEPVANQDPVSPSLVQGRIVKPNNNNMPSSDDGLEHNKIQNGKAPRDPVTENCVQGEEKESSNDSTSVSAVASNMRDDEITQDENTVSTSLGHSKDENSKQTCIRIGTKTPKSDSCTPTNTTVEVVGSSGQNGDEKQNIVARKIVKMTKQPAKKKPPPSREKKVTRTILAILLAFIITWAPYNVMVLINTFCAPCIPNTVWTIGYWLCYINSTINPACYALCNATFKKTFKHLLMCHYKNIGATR
It is filed as functional, cell-based.

Assay [7] deals with T5, Alpha-2A adrenergic receptor (Homo sapiens, UniProt P08913).
T5 sequence (P08913 whole entry): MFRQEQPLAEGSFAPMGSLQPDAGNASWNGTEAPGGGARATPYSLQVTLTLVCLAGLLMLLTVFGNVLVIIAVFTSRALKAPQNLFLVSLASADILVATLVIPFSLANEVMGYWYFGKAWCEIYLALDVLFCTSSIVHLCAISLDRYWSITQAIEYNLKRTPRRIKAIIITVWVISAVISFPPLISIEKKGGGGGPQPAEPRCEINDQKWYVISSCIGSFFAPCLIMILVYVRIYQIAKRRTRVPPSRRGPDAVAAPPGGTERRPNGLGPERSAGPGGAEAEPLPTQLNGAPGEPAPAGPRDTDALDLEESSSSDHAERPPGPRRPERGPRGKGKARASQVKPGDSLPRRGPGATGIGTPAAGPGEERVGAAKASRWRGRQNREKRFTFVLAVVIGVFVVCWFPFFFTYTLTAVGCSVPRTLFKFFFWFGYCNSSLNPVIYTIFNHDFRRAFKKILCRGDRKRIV
It is filed as functional, cell-based.

Assay [8] concerns the target Beta-1 adrenergic receptor (Homo sapiens, UniProt P08588). The format is functional.

Structures are written as SMILES. Bounds are passed on as bounds.
Further: assay procedure not described here.

Adenosine receptor A2a, sequence (P29274 whole entry): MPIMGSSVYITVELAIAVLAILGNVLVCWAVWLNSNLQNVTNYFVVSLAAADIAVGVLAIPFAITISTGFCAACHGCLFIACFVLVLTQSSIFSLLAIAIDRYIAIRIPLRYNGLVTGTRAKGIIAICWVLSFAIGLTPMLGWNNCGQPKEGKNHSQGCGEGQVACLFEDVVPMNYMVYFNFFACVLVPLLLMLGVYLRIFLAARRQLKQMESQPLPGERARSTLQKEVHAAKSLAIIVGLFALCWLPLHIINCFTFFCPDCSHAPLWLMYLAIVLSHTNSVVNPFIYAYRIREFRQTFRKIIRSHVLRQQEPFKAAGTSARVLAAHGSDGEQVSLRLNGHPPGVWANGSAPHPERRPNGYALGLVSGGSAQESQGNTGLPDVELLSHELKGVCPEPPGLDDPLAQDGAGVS
Beta-1 adrenergic receptor, sequence (P08588 whole entry): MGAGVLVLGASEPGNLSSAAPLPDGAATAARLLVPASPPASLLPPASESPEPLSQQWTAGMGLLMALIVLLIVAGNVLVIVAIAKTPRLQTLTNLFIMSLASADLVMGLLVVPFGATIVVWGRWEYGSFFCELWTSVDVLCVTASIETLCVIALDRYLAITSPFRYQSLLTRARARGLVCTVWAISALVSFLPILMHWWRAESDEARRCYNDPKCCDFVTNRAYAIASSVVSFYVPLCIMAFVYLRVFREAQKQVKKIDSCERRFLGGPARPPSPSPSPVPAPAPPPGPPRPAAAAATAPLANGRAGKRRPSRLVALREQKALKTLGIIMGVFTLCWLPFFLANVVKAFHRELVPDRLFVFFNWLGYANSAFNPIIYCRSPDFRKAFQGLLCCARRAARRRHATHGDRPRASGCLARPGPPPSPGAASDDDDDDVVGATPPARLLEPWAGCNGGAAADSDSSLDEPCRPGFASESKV

In general, AC50 refers to the concentration at which the activity in the assay is half-maximal. A lower AC50 goes with activity at low concentration. With `CC1(C)O[C@@H]2C[C@H]3[C@@H]4CCC5=CC(=O)C=C[C@]5(C)[C@@]4(F)[C@@H](O)C[C@]3(C)[C@]2(C(=O)CO)O1` [TRIAMCINOLONE ACETONIDE], the half-maximal activity concentration (AC50) is above 30 µM in assay [1]; above 30 µM in assay [2]; above 30 µM in assay [3]; 20 nM in assay [4]; above 30 µM in assay [5]; above 30 µM in assay [6]. The AC50 in assay [7] and in assay [8] was above 30 µM throughout.
